From patent US7781409B2, “Composition for external use” (Suntory Holdings Limited, priority 2003, dated 2010)
Where two headings read alike, the source gives them in different places.

Columns and labels:
[1] = system: human isolated skin piece; conditions: female, 5 h, 100 mM, pH 7.25
[2] = system: keratinocytes (HaCaT) derived from human skin epidermis; assay: Protective effect on cell death of keratinocytes (HaCaT) by UVB irradiation (WST-1 cell survival rate); format: cell-based; conditions: same concentration, compared with ascorbic acid or 2-O-(α-D-glucopyranosyl)ascorbic acid; FIG. 1
Protocol: Human skin keratinocytes HaCaT (cell line gifted by Dr. Fusenig of Heidelberg University) was seeded to 10% bovine fetal serum (FBS)-containing Dulbecco modified Eagle medium (DMEM) at 10,000 cells/well in a 24-well plate, and after 18 hours, 35 millijoule/square centimeter (mJ/cm^2) of UBV (maximum wavelength 312 nm) was irradiated. Two hours before the irradiation, 20 to 100 μM of 2-O-(β-D-glucopyranosyl)ascorbic acid was added, and such ascorbic acid was removed immediately before the irradiation and then rinsed. Irradiation was performed in PBS in the absence of a drug, and after irradiation, culturing was continued in a FBS 10%-containing DMEM medium, and 24 hours after irradiation, a cell survival rate was investigated by a method for measuring mitochondrion dehydrogenase activity with the use of 2-(4-iodophenyl)-3-(4-nitrophenyl)-5-(2,4-disulfophenyl)-2H-tetrazolium monosodium salt (WST-1). Similarly, as Comparative Example, 2-O-(α-D-glucopyranosyl) ascorbic acid and ascorbic acid were studied, and the results are also shown in FIG. 1.

[3] = system: normal human dermal fibroblasts (NHDF); assay: Collagen synthesis of normal human dermal fibroblasts (3H-proline incorporation, collagenase-sensitive); format: cell-based; conditions: compared with 2-O-(α-D-glucopyranosyl)ascorbic acid or ascorbic acid; FIG. 3
Protocol: Normal human dermal fibroblasts NHDF are seeded in a dish having a diameter of 100 millimeter at 370,000 cells. […] After additional 1 hour, 0.12 mL (120 μCi) of L-(2,3-^3H) proline is added, followed by culturing for 48 hours. After culturing, the medium is removed, and a cell sheet is rinsed with PBS four times. Then, cells are peeled with trypsin, cells are lysed with an alkali, and neutralized to obtain an intracellular protein. The protein is subjected to collagen degradation with collagenase of Clostridium to obtain a protein fraction, and radioactivity of the fraction is measured with a liquid scintillation counter using […]. Separately, radioactivity of an intracellular protein fraction which has not been treated with collagenase is similarly measured with a liquid scintillation counter. A difference between respective radioactivities obtained is adopted as collagen synthesis activity.

[4] = system: human skin keratinocytes HaCaT; assay: Concentration of intracellular ascorbic acid in human skin keratinocytes; format: cell-based; conditions: compared with 2-O-(α-D-glucopyranosyl)ascorbic acid and ascorbic acid; FIG. 2
Protocol: At 3 to 24 hours after addition, a medium is removed, rinsed twice with ice-cooled PBS, and a cell sheet is peeled with trypsin to make single cell state. This is suspended in PBS containing 50 μM dithiothreitol (DTT), and rinsed three times by centrifugation. The cell suspension is disrupted with a potter-type teflon (registered trademark) homogenizer, and then frozen and thawed twice. […] SHODEX® ODSpak (manufactured by SHOWA DENKO K.K., 4.6×150 mm) , mobile phase: 0.1 M KH2PO4-H3PO4 (pH 2.35)-0.1 mM EDTA-2Na, flow rate: 1.5 mL/min).

[5] = Pharmacokinetics at oral ingestion by a rat: intact form in blood; format: in vivo
burn patient = conditions: applied, Japanese Cosmetic Science Society 1998; cited from earlier work
human skin = conditions: cream containing the compound applied, Fragrance Journal 1997; cited from earlier work
[6] = rat, J.Pharmacobio-Dyn., 13, 688, 1990; cited from earlier work
guinea pig skin = conditions: shaved back, external application, Fragrance Journal 1997; cited from earlier work
pig skin = conditions: 10% aqueous solution, pre-administration for 3 days to one week, Br. J. Dermatol. 1992; cited from earlier work

O=C1O[C@H]([C@@H](O)CO)C(O)=C1O[C@@H]1O[C@H](CO)[C@@H](O)[C@H](O)[C@H]1O [AβG, 2-O-(β-D-glucopyranosyl)ascorbic acid]
Ratio (%) of reduced form of vitamin C occupied in total vitamin C in skin, Dermis [1]: 25%
Ratio (%) of reduced form of vitamin C occupied in total vitamin C in skin, Epidermis [1]: 67%
Total vitamin C in skin, Dermis [1]: 3 nmol/g tissue
Total vitamin C in skin, Epidermis [1]: 15 nmol/g tissue
Uptake amount of AβG into skin piece, Dermis [1]: 500
Uptake amount of AβG into skin piece, Epidermis [1]: 3,400
Suppression of cell death of keratinocytes (HaCaT) due to UVB irradiation [2]: clearly suppressed more strongly cell death
Collagen synthesis by normal human dermal fibroblasts (NHDF) [3]: has higher activity
Concentration of intracellular ascorbic acid in human skin keratinocytes [4]: maintained at a highest concentration for a longest term
Intact form in blood after oral ingestion [5]: detected in blood

O=C1O[C@H]([C@@H](O)CO)C(O)=C1OP(=O)(O)O [ascorbic acid 2-phosphate]
Cure of burn (burn patient): cured without scar

O=C1O[C@H]([C@@H](O)CO)C(O)=C1O[C@H]1O[C@H](CO)[C@@H](O)[C@H](O)[C@H]1O [2-O-(α-D-glucopyranosyl)ascorbic acid]
Pigmentation due to ultraviolet-ray irradiation (human skin): suppressed
Intact form in blood after oral ingestion [6]: not detected as an intact form in blood
Inducement of skin inflammation due to UVB irradiation (guinea pig skin): suppressed

O=C1O[C@H]([C@@H](O)CO)C(O)=C1O [ascorbic acid]
Ultraviolet-ray disorder (pig skin): ultraviolet-ray disorder can be alleviated
Inducement of skin inflammation due to UVB irradiation (guinea pig skin): suppressed
